How the values were obtained:
[1] = system: antibodies in sera from SARS patients (sera 1a, 1b, 2, 6, 37, 62, London, SARS-yellow, SARS-green); format: binding, human; set-up: Binding of serum 6 to linear peptides of protein X1 of SARS-CoV Urbani / Binding of serum 37 to linear peptides of protein X1 of SARS-CoV Urbani / Binding of serum 6 to looped/cyclic peptide (PEPSCAN-ELISA) / Binding of serum 37 to looped/cyclic peptide (PEPSCAN-ELISA) / Binding of serum 37 to looped/cyclic peptides of protein X1 of SARS-CoV Urbani / Binding of serum 6 to linear peptides of protein X2 / Binding of serum 37 to linear peptides of protein X2 / Binding of serum 37 to looped/cyclic peptides of protein X2 of SARS-CoV Urbani / Binding of serum 6 to linear peptides of protein M of SARS-CoV Urbani / Binding of serum 37 to linear peptides of protein M of SARS-CoV Urbani / Binding of serum 6 to looped/cyclic peptides of protein M of SARS-CoV Urbani / Binding of serum 37 to looped/cyclic peptides of protein M of SARS-CoV Urbani / Binding of serum 6 to linear peptides of protein X3 of SARS-CoV Urbani / Binding of serum 37 to linear peptides of protein X3 of SARS-CoV Urbani / Binding of serum 37 to looped/cyclic peptides of protein X3 of SARS-CoV Urbani / Binding of serum 6 to linear peptides of protein X4 of SARS-CoV Urbani / Binding of serum 37 to linear peptides of protein X4 of SARS-CoV Urbani / Binding of serum 37 to looped/cyclic peptides of protein X4 of SARS-CoV Urbani / Binding of serum 6 to linear peptides of protein X5 of SARS-CoV Urbani / Binding of serum 37 to linear peptides of protein X5 of SARS-CoV Urbani / Binding of serum 37 to looped/cyclic peptides of protein X5 of SARS-CoV Urbani / Binding of serum 6 to linear peptides of protein N of SARS-CoV Urbani / Binding of serum 37 to linear peptides of protein N of SARS-CoV Urbani / Binding of serum 6 to linear peptide (PEPSCAN-ELISA) / Binding of serum 1a to looped/cyclic peptides of protein N of SARS-CoV Urbani / Binding of serum 1b to looped/cyclic peptides of protein N of SARS-CoV Urbani / Binding of serum 2 to looped/cyclic peptides of protein N of SARS-CoV Urbani / Binding of serum 6 to looped/cyclic peptides of protein N of SARS-CoV Urbani / Binding of serum 37 to looped/cyclic peptides of protein N of SARS-CoV Urbani / Binding of serum 62 to looped/cyclic peptides of protein N of SARS-CoV Urbani / Binding of serum London to looped/cyclic peptides of protein N of SARS-CoV Urbani / Binding of serum SARS-green to looped/cyclic peptides of protein N of SARS-CoV Urbani: unit not given here
[2] = system: control sera (pooled serum of ten healthy LUMC hospital workers; commercial negative donor pooled serum from the Dutch bloodbank); format: binding, human; set-up: Binding of Control serum LUMC to linear peptides / Binding of Control serum Blood-bank to linear peptides / Binding of Control serum LUMC to looped peptides / Binding of Control Serum Blood-Bank to Looped peptides / Binding of Control serum LUMC to linear peptides of the protein M of SARS-CoV Urbani / Binding of Control serum Blood-bank to linear peptides of the protein M of SARS-CoV Urbani / Binding of Control serum LUMC to looped peptides of the protein M of SARS-CoV Urbani / Binding of Control Serum Blood-Bank to Looped peptides of the protein M of SARS-CoV Urbani: unit not given here
[3] = system: rabbit serum obtained by immunizing a rabbit with the SARS-CoV strain Frankfurt 1; format: binding; set-up: Binding of a rabbit serum to linear peptides / Binding of a rabbit serum to looped peptides / Rabbit serum linear peptides / Rabbit serum looped peptides / Binding of a rabbit serum to linear peptides of protein N of SARS-CoV Urbani (Rabbit serum linear peptides) / Binding of a rabbit serum to looped/cyclic peptides of protein N of SARS-CoV Urbani (Rabbit serum looped peptides): unit not given here

**Q.** GGALIARCWYLHEGH was tested. Which “Binding of serum 1a to linear peptides of protein X5 of SARS-CoV Urbani” value [1] did it give?
**A.** Its value is 0.8.

**Q.** What about the “Binding of serum 1a to looped/cyclic peptides of protein X5 of SARS-CoV Urbani” value [1] of the same sequence?
**A.** The value was 0.7.

**Q.** What about the “Binding of serum 1b to linear peptides of protein X5 of SARS-CoV Urbani” value [1] of the same sequence?
**A.** Its value is 0.7.

**Q.** What about the “Binding of serum 1b to looped/cyclic peptides of protein X5 of SARS-CoV Urbani” value [1] of the same sequence?
**A.** Its value is 0.6.

**Q.** And the “Binding of serum 2 to linear peptides of protein X5 of SARS-CoV Urbani” value [1]?
**A.** The value was 0.6.

**Q.** And the “Binding of serum 2 to looped/cyclic peptides of protein X5 of SARS-CoV Urbani” value [1]?
**A.** Its value is 0.6.

**Q.** What about the “Binding of serum 6 to linear peptides of protein X5 of SARS-CoV Urbani” value [1] of the same sequence?
**A.** The value was 0.8.

**Q.** And the “Binding of serum 6 to looped/cyclic peptides of protein X5 of SARS-CoV Urbani” value [1]?
**A.** Its value is 0.4.

**Q.** And the “Binding of serum 37 to linear peptides of protein X5 of SARS-CoV Urbani” value [1]?
**A.** The value was 0.7.

**Q.** And the “Binding of serum 37 to looped/cyclic peptides of protein X5 of SARS-CoV Urbani” value [1]?
**A.** Its value is 0.7.

**Q.** And the “Binding of serum 62 to linear peptides of protein X5 of SARS-CoV Urbani” value [1]?
**A.** The value was 0.8.

**Q.** And the “Binding of serum 62 to looped/cyclic peptides of protein X5 of SARS-CoV Urbani” value [1]?
**A.** Its value is 0.7.

**Q.** What about the “Binding of serum London to linear peptides of protein X5 of SARS-CoV Urbani” value [1] of the same sequence?
**A.** The value was 0.7.

**Q.** What about the “Binding of serum London to looped/cyclic peptides of protein X5 of SARS-CoV Urbani” value [1] of the same sequence?
**A.** The value was 0.3.

**Q.** What about the “Binding of serum SARS-green to linear peptides of protein X5 of SARS-CoV Urbani” value [1] of the same sequence?
**A.** Its value is 0.7.

**Q.** And the “Binding of serum SARS-green to looped/cyclic peptides of protein X5 of SARS-CoV Urbani” value [1]?
**A.** Its value is 0.7.

**Q.** What about the “Binding of serum SARS-yellow to linear peptides of protein X5 of SARS-CoV Urbani” value [1] of the same sequence?
**A.** The value was 0.3.

**Q.** What about the “Binding of serum SARS-yellow to looped/cyclic peptides of protein X5 of SARS-CoV Urbani” value [1] of the same sequence?
**A.** The value was 0.3.

**Q.** And the “Binding of Control Serum Blood-Bank to Looped peptides” value [2]?
**A.** The value was 0.6.

**Q.** What about the “Binding of Control serum Blood-bank to linear peptides” value [2] of the same sequence?
**A.** Its value is 0.5.

**Q.** And the “Binding of Control serum LUMC to linear peptides” value [2]?
**A.** Its value is 0.4.

**Q.** And the “Binding of Control serum LUMC to looped peptides” value [2]?
**A.** The value was 0.6.

**Q.** What about the “Rabbit serum linear peptides” value [3] of the same sequence?
**A.** Its value is 0.5.

**Q.** What about the “Rabbit serum looped peptides” value [3] of the same sequence?
**A.** Its value is 0.5.

**Q.** Which results are given for GIENATFFIFNKLVK?
**A.** Binding of serum 1a to linear peptides of protein X1 of SARS-CoV Urbani [1]: 0.6; Binding of serum 1a to looped/cyclic peptides of protein X1 of SARS-CoV Urbani [1]: 0.6; Binding of serum 1b to linear peptides of protein X1 of SARS-CoV Urbani [1]: 0.5; Binding of serum 1b to looped/cyclic peptides of protein X1 of SARS-CoV Urbani [1]: 0.4; Binding of serum 2 to linear peptides of protein X1 of SARS-CoV Urbani [1]: 0.5; Binding of serum 2 to looped/cyclic peptides of protein X1 of SARS-CoV Urbani [1]: 0.5; Binding of serum 6 to linear peptides of protein X1 of SARS-CoV Urbani [1]: 0.5; Binding of serum 6 to looped/cyclic peptides of protein X1 of SARS-CoV Urbani [1]: 0.5; Binding of serum 37 to linear peptides of protein X1 of SARS-CoV Urbani [1]: 0.6; Binding of serum 37 to looped/cyclic peptides of protein X1 of SARS-CoV Urbani [1]: 0.6; Binding of serum 62 to linear peptides of protein X1 of SARS-CoV Urbani [1]: 0.6; Binding of serum 62 to looped/cyclic peptides of protein X1 of SARS-CoV Urbani [1]: 0.6; Binding of serum London to linear peptides of protein X1 of SARS-CoV Urbani [1]: 0.3; Binding of serum London to looped/cyclic peptides of protein X1 of SARS-CoV Urbani [1]: 0.2; Binding of serum SARS-green to linear peptides of protein X1 of SARS-CoV Urbani [1]: 0.2; Binding of serum SARS-green to looped/cyclic peptides of protein X1 of SARS-CoV Urbani [1]: 0.2; Binding of serum SARS-yellow to linear peptides of protein X1 of SARS-CoV Urbani [1]: 0.5; Binding of serum SARS-yellow to looped/cyclic peptides of protein X1 of SARS-CoV Urbani [1]: 0.5; Binding of Control Serum Blood-Bank to Looped peptides [2]: 0.5; Binding of Control serum Blood-bank to linear peptides [2]: 0.6; Binding of Control serum LUMC to linear peptides [2]: 0.5; Binding of Control serum LUMC to looped peptides [2]: 0.5; Binding of a rabbit serum to linear peptides [3]: 0.1; Binding of a rabbit serum to looped peptides [3]: 0.6

**Q.** How did the “Binding of serum 1a to linear peptides of protein M of SARS-CoV Urbani” value [1] turn out when GLMWLSYFVASFRLF was run?
**A.** The value was 0.7.

**Q.** What about the “Binding of serum 1a to looped/cyclic peptides of protein M of SARS-CoV Urbani” value [1] of the same sequence?
**A.** The value was 0.6.

**Q.** What about the “Binding of serum 1b to linear peptides of protein M of SARS-CoV Urbani” value [1] of the same sequence?
**A.** The value was 0.4.

**Q.** And the “Binding of serum 1b to looped/cyclic peptides of protein M of SARS-CoV Urbani” value [1]?
**A.** Its value is 0.2.

**Q.** What about the “Binding of serum 2 to linear peptides of protein M of SARS-CoV Urbani” value [1] of the same sequence?
**A.** Its value is 0.4.

**Q.** What about the “Binding of serum 2 to looped/cyclic peptides of protein M of SARS-CoV Urbani” value [1] of the same sequence?
**A.** Its value is 0.6.

**Q.** What about the “Binding of serum 6 to linear peptides of protein M of SARS-CoV Urbani” value [1] of the same sequence?
**A.** The value was 0.6.

**Q.** And the “Binding of serum 6 to looped/cyclic peptides of protein M of SARS-CoV Urbani” value [1]?
**A.** Its value is 0.8.

**Q.** What about the “Binding of serum 37 to linear peptides of protein M of SARS-CoV Urbani” value [1] of the same sequence?
**A.** Its value is 0.5.

**Q.** What about the “Binding of serum 37 to looped/cyclic peptides of protein M of SARS-CoV Urbani” value [1] of the same sequence?
**A.** The value was 0.5.

**Q.** What about the “Binding of serum 62 to linear peptides of protein M of SARS-CoV Urbani” value [1] of the same sequence?
**A.** Its value is 0.6.

**Q.** And the “Binding of serum 62 to looped/cyclic peptides of protein M of SARS-CoV Urbani” value [1]?
**A.** Its value is 0.6.

**Q.** What about the “Binding of serum London to linear peptides of protein M of SARS-CoV Urbani” value [1] of the same sequence?
**A.** Its value is 0.4.

**Q.** What about the “Binding of serum London to looped/cyclic peptides of protein M of SARS-CoV Urbani” value [1] of the same sequence?
**A.** The value was 0.3.

**Q.** What about the “Binding of serum SARS-green to linear peptides of protein M of SARS-CoV Urbani” value [1] of the same sequence?
**A.** Its value is 0.3.

**Q.** What about the “Binding of serum SARS-green to looped/cyclic peptides of protein M of SARS-CoV Urbani” value [1] of the same sequence?
**A.** Its value is 0.3.

**Q.** What about the “Binding of serum SARS-yellow to linear peptides of protein M of SARS-CoV Urbani” value [1] of the same sequence?
**A.** The value was 0.1.

**Q.** What about the “Binding of serum SARS-yellow to looped/cyclic peptides of protein M of SARS-CoV Urbani” value [1] of the same sequence?
**A.** The value was 0.7.

**Q.** And the “Binding of Control Serum Blood-Bank to Looped peptides of the protein M of SARS-CoV Urbani” value [2]?
**A.** Its value is 0.7.

**Q.** What about the “Binding of Control serum Blood-bank to linear peptides of the protein M of SARS-CoV Urbani” value [2] of the same sequence?
**A.** The value was 0.6.

**Q.** What about the “Binding of Control serum LUMC to linear peptides of the protein M of SARS-CoV Urbani” value [2] of the same sequence?
**A.** Its value is 0.2.

**Q.** What about the “Binding of Control serum LUMC to looped peptides of the protein M of SARS-CoV Urbani” value [2] of the same sequence?
**A.** Its value is 0.6.

**Q.** And the “Rabbit serum linear peptides” value [3]?
**A.** The value was 0.2.

**Q.** What about the “Rabbit serum looped peptides” value [3] of the same sequence?
**A.** Its value is 0.2.

— patent US20070128217A1 (priority 2003, published 2007)
